Results from patent US9790218B2, “Small molecule activators of calcium-activated chloride channels and methods of use” (The Regents of the University of California, priority 2011, dated 2017).

How the values were obtained:
[1] = tested on: cytoplasmic Ca^2+ in FRT cells; test: Cytoplasmic calcium measured by Fluo-4 fluorescence; assay type: cell-based; conditions: 10 μM activator
Experimental: (§1) FIG. 2A-E. Characterization of TMEM16A activators. FIG. 2A. Cytoplasmic calcium measured by Fluo-4 fluorescence. 100 μM ATP (gray line) or 10 μM of indicated TMEM16A activators were added at the arrow. FIG. 2B. Apical membrane current measured in TMEM16A-expressing FRT cells in the presence of a transepithelial chloride gradient and after basolateral membrane permeabilization. […] T16Ainh-A01 (10 μM) added where indicated. […] (right) Concentration-activation data summary (mean±S.E., n=4-6). FIG. 2C. Synergistic effect of Eact and Fact. (left and center) Representative current traces showing synergy. (right) Data summary of low doses of TMEM16A activation (mean±S.E., n=5, * P<0.05). FIG. 2D. Apical membrane current measured in FRT cells transfected with mouse TMEM16A or TMEM16B. FIG. 2E. Effect of Eact and Fact on CFTR and ENaC. (left) FRT cells expressing wild type CFTR and YFP indicator were pretreated for 5 min with 10 μM Eact and Fact. Forskolin (10 μM) added as indicated. (right) HBE cells were pre-treated for 5 min with 10 μM Eact and Fact, with amiloride (10 μM) added as indicated.
FRT cells in 96-well black-walled microplates were loaded with Fluo-4 NW per the manufacturer's protocol (Invitrogen, Carlsbad, Calif.). Fluo-4 fluorescence was measured with a FLUOstar Optima fluorescence plate reader equipped with syringe pumps and custom Fluo-4 excitation/emission filters (485/538 nm).

CFTR = biological target: T1, CFTR (Homo sapiens, UniProt P13569); test: CFTR conductance in FRT cells expressing wild type CFTR and YFP indicator; assay type: cell-based; conditions: 10 μM, 5 min pretreatment; forskolin 10 μM
T1 construct: expressed in transfected cells; host or cells: FRT cells co-expressing a YFP halide indicator
T1 sequence (P13569 whole entry): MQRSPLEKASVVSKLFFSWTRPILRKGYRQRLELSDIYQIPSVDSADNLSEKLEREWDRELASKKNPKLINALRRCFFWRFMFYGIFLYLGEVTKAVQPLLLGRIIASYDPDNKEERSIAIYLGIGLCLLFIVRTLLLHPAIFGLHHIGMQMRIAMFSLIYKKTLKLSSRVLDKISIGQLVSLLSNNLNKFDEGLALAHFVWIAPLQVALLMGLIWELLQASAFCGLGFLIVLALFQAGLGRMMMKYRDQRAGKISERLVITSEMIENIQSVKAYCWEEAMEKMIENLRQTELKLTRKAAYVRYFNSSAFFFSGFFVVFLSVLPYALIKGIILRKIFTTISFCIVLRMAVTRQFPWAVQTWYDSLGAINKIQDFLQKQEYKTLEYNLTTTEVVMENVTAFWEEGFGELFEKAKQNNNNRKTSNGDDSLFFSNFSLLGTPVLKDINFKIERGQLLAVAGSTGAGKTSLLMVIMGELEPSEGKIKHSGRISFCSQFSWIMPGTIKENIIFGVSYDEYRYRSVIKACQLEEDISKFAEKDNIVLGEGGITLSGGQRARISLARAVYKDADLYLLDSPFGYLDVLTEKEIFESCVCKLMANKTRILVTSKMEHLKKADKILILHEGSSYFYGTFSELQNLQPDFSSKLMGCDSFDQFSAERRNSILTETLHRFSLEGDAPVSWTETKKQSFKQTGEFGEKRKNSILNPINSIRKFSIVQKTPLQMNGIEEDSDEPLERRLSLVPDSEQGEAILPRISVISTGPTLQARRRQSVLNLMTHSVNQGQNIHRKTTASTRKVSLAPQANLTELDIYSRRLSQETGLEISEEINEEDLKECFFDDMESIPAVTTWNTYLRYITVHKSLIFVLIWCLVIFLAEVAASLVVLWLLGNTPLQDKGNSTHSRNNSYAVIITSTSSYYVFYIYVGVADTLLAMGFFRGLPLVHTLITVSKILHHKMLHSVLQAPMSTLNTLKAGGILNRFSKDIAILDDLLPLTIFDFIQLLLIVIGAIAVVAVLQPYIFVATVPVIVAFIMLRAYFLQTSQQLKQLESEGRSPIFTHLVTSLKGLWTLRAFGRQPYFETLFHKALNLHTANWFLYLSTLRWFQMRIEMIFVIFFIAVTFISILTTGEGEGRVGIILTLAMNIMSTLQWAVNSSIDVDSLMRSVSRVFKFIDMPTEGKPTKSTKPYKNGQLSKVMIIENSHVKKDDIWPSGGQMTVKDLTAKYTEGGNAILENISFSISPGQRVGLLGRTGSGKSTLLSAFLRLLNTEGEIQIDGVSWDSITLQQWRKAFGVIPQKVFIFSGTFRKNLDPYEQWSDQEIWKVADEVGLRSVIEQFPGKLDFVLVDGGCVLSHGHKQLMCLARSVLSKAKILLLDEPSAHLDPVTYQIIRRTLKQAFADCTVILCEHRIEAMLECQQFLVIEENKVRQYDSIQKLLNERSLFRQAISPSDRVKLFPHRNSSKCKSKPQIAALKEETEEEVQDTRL
Experimental: as §1

## O=C(Nc1ccc(Br)cc1)c1cccc(-n2cnnn2)c1 [Fact, N-(4-bromophenyl)-3-(1H-tetrazol-1-yl)benzamide]
[1]
  effect on cytoplasmic Ca^2+: did not elevate Ca^2+
CFTR
  effect on CFTR conductance: Neither Eact nor Fact affected
